This passage reports IC50 results from publication PMC3757929 (Molecular pharmaceutics, 2013).

The target of experiment [1] is T1, prostate specific membrane antigen (PSMA) (Homo sapiens, UniProt Q04609). Kind of experiment: competitive binding on LNCaP cells with […]-GPI radioligand. The experiment is classed as cell-based.
Experiment [2] deals with T1, prostate specific membrane antigen (PSMA). Described as above. The experiment is classed as cell-based. The source holds these as a separate data set.

Where two headings read alike, the source gives them in different places.

T1 sequence (Q04609 whole entry): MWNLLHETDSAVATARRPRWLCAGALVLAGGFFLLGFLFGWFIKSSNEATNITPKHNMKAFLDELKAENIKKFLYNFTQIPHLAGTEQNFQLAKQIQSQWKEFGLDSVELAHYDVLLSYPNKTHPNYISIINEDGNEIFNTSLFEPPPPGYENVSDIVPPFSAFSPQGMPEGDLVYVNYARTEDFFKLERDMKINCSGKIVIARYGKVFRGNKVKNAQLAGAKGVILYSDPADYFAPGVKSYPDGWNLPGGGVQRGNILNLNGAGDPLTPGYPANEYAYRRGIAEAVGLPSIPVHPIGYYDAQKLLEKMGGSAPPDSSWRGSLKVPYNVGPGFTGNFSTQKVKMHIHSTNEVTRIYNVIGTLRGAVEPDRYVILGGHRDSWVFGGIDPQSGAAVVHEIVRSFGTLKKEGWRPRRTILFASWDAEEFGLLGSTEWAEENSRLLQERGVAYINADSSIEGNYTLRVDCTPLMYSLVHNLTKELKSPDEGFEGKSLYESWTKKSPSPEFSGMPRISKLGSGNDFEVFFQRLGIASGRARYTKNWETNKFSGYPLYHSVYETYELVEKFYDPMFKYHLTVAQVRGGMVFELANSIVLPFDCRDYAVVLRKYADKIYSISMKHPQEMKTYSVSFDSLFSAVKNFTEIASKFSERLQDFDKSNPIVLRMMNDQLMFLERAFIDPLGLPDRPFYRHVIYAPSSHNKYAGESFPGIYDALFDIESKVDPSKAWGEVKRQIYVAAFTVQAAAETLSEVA

The compound `NC(CCP(=O)(O)CC(CCC(=O)O)C(=O)O)C(=O)O` (racemic) [GPI, 2[(3-amino-3-carboxypropyl)(hydroxy)(phosphinyl)-methyl]pentane-1,5-dioic acid] showed an IC50 in experiment [1] of 460 ± 13 nM.
Regarding `O=C(O)CCC(CP(=O)(O)CCC(NC(=O)CCC(C(=O)O)N1CCCN2CCN(CCCN(CC(=O)O)CC2)CC1)C(=O)O)C(=O)O` (racemic) [H2CBT1G], the IC50 in experiment [2] was 578 ± 81 nM.
In the case of `O=C(O)CCC(CP(=O)(O)CCC(NC(=O)CCC(C(=O)O)N1CCCN2CCN(CCCN(C(CCC(=O)NC(CCP(=O)(O)CC(CCC(=O)O)C(=O)O)C(=O)O)C(=O)O)CC2)CC1)C(=O)O)C(=O)O` (racemic) [H2CBT2G], the IC50 in experiment [2] amounted to 129 ± 17 nM.

By IC50 is commonly meant the concentration that gives 50% inhibition. A low value points to greater potency.
